For three compounds, remaining binding results are on record in patent US11208412B2 (DAEGU-GYEONGBUK MEDICAL INNOVATION FOUNDATION, priority 2017, dated 2021).

Common to all, as to assay: Kinase selectivity, DiscoverX scanMAX Kinase assay panel (% control)
Holding throughout (type): binding

The target of assay [1] is T1, kinases of the scanMAX Kinase assay panel (Homo sapiens, UniProt O75716).
T1 construct: purchased DiscoverX Co. (contract measurement) scanMAX Kinase assay panel
The settings on record: kinase STK16; 1 uM in DMSO. In a few lines: (§1)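 Compounds tested at 1 uM against the scanMAX kinase panel. Signal expressed as % control = (compound − positive control)/(DMSO negative control − positive control) × 100, where positive control = 0% and DMSO = 100%; below 35% counted as activity on that kinase.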

The target in assay [2] is T2, kinases of the scanMAX Kinase assay panel (Homo sapiens, UniProt P15735).
T2 construct: purchased DiscoverX Co. (contract measurement) scanMAX Kinase assay panel
T2 sequence (P15735 1-406): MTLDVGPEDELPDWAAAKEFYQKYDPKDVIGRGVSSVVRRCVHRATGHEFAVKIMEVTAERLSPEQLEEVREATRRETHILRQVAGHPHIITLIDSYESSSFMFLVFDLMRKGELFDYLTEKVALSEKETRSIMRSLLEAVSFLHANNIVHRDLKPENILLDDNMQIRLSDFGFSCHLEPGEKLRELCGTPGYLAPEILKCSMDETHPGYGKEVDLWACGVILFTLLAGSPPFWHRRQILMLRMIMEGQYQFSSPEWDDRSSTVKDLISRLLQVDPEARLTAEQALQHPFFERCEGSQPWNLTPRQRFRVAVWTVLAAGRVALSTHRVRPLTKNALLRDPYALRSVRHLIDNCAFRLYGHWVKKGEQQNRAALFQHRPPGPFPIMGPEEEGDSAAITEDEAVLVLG
The note with it: PHKG2; 1 uM. The essentials: as §1

The target of assay [3] is T3, kinases of the scanMAX Kinase assay panel (Homo sapiens, UniProt P36896).
T3 construct: purchased DiscoverX Co. (contract measurement) scanMAX Kinase assay panel
T3 sequence (P36896 24-505): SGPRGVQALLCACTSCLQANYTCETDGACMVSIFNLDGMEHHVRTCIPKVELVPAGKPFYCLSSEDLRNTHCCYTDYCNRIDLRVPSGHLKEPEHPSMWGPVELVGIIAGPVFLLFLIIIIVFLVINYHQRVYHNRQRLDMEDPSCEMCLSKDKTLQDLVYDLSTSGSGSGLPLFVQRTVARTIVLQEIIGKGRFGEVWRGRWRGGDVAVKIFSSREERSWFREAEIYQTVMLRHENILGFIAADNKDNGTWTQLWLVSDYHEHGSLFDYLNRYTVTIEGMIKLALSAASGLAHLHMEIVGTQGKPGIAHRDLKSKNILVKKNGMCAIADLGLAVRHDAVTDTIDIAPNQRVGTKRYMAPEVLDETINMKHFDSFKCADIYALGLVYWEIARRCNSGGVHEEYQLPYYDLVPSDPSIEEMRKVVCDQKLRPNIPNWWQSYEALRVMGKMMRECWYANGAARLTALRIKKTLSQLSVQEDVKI
The note with it: ACVR1B; 1 uM. The essentials:
as §1

In assay [4] the target is T4, kinases of the scanMAX Kinase assay panel (Homo sapiens, UniProt Q14680).
T4 construct: purchased DiscoverX Co. (contract measurement) scanMAX Kinase assay panel
The settings on record: MELK; 1 uM. In a few lines: as §1

For assay [5], the target named is T5, kinases of the scanMAX Kinase assay panel (Homo sapiens, UniProt Q9BVS4).
T5 construct: purchased DiscoverX Co. (contract measurement) scanMAX Kinase assay panel
The note with it: kinase RIOK2; 1 uM in DMSO. In a few lines:
as §1

In assay [6] the target is T6, kinases of the scanMAX Kinase assay panel (Homo sapiens, UniProt Q9P1W9).
T6 construct: purchased DiscoverX Co. (contract measurement) scanMAX Kinase assay panel
The note with it: PIM2; 1 uM. In a few lines:
as §1

Assay [7] addresses T7, kinases of the scanMAX Kinase assay panel (Homo sapiens, UniProt Q9UF33).
T7 construct: purchased DiscoverX Co. (contract measurement) scanMAX Kinase assay panel
T7 sequence (Q9UF33 23-1036): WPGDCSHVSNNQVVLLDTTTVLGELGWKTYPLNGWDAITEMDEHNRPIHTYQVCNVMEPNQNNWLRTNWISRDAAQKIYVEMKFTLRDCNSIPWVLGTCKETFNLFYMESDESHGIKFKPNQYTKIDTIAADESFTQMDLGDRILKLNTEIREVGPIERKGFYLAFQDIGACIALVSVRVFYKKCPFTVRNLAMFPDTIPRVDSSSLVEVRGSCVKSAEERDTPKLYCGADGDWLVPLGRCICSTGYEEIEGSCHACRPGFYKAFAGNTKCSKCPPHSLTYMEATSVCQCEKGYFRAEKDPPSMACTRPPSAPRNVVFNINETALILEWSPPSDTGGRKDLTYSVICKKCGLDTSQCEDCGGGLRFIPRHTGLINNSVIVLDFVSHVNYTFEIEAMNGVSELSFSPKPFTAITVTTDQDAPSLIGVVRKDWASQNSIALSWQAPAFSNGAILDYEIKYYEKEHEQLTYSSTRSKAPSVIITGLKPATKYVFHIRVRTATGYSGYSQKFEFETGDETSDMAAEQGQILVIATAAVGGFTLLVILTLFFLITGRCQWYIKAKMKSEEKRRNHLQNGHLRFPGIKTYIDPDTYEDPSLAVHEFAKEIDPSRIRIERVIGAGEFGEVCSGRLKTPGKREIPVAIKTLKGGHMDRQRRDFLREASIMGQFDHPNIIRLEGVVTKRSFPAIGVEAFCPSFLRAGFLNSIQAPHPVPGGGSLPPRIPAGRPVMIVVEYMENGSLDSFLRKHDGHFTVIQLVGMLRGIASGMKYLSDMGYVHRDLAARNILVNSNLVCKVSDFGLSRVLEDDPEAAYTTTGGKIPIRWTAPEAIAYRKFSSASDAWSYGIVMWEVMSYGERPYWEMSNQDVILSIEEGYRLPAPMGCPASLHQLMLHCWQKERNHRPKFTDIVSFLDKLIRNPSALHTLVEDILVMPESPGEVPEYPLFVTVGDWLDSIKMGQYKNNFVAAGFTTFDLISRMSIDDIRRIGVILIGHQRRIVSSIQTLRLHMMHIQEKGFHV
The settings on record: EPHA6; 1 uM. The essentials:
as §1

T6 sequence (Q9P1W9 whole entry): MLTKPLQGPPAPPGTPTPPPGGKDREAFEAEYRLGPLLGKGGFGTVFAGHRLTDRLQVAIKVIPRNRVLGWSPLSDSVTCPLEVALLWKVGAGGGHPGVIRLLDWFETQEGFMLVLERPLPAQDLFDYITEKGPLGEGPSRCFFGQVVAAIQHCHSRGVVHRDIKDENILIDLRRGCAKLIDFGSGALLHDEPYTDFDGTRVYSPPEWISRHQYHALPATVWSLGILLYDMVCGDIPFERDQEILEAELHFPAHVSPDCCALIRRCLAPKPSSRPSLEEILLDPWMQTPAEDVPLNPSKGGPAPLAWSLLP
T4 sequence (Q14680 whole entry): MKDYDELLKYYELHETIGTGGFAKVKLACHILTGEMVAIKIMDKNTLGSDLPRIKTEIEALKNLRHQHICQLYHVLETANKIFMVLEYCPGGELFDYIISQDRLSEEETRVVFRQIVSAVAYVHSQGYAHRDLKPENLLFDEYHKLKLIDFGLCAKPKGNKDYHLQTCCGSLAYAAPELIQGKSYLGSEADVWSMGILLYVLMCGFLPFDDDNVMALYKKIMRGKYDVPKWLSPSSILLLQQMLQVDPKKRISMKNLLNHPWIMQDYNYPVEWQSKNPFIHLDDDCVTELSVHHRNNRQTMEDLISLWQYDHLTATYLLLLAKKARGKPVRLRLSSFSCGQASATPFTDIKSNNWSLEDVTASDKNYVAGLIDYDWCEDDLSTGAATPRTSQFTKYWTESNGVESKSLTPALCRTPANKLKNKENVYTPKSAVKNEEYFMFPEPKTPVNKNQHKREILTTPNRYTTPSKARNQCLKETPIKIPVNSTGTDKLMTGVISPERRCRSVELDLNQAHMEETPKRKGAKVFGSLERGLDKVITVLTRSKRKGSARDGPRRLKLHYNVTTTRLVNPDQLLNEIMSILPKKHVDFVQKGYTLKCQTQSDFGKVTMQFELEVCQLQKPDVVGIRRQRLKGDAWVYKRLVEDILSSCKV
T5 sequence (Q9BVS4 whole entry): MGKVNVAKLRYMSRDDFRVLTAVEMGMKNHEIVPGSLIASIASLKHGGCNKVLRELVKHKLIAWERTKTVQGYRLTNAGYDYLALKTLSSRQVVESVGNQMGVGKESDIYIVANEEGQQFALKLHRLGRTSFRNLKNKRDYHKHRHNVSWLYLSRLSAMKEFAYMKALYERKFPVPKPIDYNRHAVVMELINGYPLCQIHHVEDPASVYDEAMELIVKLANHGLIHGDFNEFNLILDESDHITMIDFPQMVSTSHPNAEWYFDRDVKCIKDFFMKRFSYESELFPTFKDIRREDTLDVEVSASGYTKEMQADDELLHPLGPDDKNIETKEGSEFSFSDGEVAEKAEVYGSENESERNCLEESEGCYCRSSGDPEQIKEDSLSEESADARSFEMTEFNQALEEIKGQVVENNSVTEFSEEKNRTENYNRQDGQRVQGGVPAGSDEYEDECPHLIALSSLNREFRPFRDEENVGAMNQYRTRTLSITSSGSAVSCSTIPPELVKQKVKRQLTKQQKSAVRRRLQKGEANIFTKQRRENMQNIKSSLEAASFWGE
T1 sequence (O75716 whole entry): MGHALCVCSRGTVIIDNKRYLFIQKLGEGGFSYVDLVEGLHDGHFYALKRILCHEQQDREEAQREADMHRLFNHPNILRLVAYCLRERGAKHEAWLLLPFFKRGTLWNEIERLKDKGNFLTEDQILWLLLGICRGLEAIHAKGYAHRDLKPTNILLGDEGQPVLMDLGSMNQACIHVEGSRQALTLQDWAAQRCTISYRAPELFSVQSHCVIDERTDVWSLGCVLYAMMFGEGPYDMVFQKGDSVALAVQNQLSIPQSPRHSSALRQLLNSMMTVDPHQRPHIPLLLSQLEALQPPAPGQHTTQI

Regarding `CC1(Nc2nc(Nc3cnn([C@H]4CCN(C5COC5)C[C@@H]4F)c3Cl)nc3[nH]cc(C#N)c23)CC1` [Example 52, 2-((5-chloro-1-((3S,4S)-3-fluoro-1-(oxetane-3-yl)piperidine-4-yl)-1H-pyrazole-4-yl)amino)((1-methylcyclopropyl)amino)-7H-pyrrolo[2,3-d]pyrimidine-5-carbonitrile], the remaining binding at 1 µM worked out at 0.35% in assay [1]; 5.2% in assay [2]; 92% in assay [3]; 6.3% in assay [4]; 1.1% in assay [5]; 63% in assay [6]. Also, the remaining binding at 1 µM in assay [7] was 43%.

For `CCNc1nc(Nc2ccc(C(=O)N3CCC(N4CCOCC4)CC3)cc2OC)nc2[nH]cc(C(F)(F)F)c12` [Example 104, (4-((4-(ethylamino)-5-(trifluoromethyl)-7H-pyrrolo[2,3-d]pyrimidine-2-yl)amino)-3-methoxyphenyl)(4-morpholinopiperidine-1-yl)methanone], the remaining binding at 1 µM in assay [1] worked out at 69%; in assay [2], 9.3%; in assay [3] it was 100%; in assay [4] it was 79%; in assay [5], 75%; in assay [6] it was 100%. Further, the remaining binding at 1 µM in assay [7] is 100%.

In the case of `CNc1nc(Nc2ccc(C(=O)N3CCOCC3)cc2OC)nc2[nH]cc(C#N)c12` [Example 1, 2-((2-methoxy-4-(morpholine-4-carbonyl)phenyl)amino)-4-(methylamino)-7H-pyrrolo[2,3-d]pyrimidine-5-carbonitrile], the remaining binding at 1 µM in assay [1] came out at 74%; in assay [2], 14%; in assay [3] it was 86%; in assay [4], 78%; in assay [5] it was 47%; in assay [6], 78%. The remaining binding at 1 µM in assay [7] is 93%.
